Experimental data from ChEMBL document CHEMBL4334464, “From Phenylthiazoles to Phenylpyrazoles: Broadening the Antibacterial Spectrum toward Carbapenem-Resistant Bacteria” (J Med Chem, 2019).
Values after ≈ are worked out from the molar mass of the structure shown. Active and inactive are the calls of the source. The rule behind the calls is not given here.

system: Acinetobacter baumannii; assay: Antibacterial activity against carbapenem-resistant Acinetobacter baumannii ATCC BAA 1605 clinical isolates after 18 to 20 hrs in aerobic condition by CLSI-based broth microdilution assay; assay type: functional; details: not given

C/C(=N\NC1=NCCN1)c1cnn(-c2ccc(C#CC3CCCC3)cc2)c1C was tested. Which MIC did it give?
Its MIC is 16 µg/mL (≈ 42.7 µM).

system: Shigella flexneri; assay: Antibacterial activity against Shigella flexneri ATCC 9199 clinical isolates after 18 to 20 hrs in aerobic condition by CLSI-based broth microdilution assay; assay type: functional; details: not given

With C/C(=N\NC1=NCCN1)c1cnn(-c2ccc(C#CC3CCCC3)cc2)c1C as the compound, how does the MIC read?
Its MIC is 32 µg/mL (≈ 85.4 µM).

system: Salmonella typhimurium; assay: Antibacterial activity against Salmonella typhimurium ATCC 700720 after 18 to 20 hrs in aerobic condition by CLSI-based broth microdilution assay; assay type: functional, Salmonella enterica subsp. enterica serovar Typhimurium; details: Salmonella enterica

How did the MIC turn out when C/C(=N\NC1=NCCN1)c1cnn(-c2ccc(C#CC3CCCC3)cc2)c1C was run?
Its MIC is 64 µg/mL (≈ 171 µM).

system: Salmonella enteritidis; assay: Antibacterial activity against Salmonella enteritidis ATCC 13076 clinical isolates after 18 to 20 hrs in aerobic condition by CLSI-based broth microdilution assay; assay type: functional, Salmonella enterica subsp. enterica serovar Enteritidis; details: Salmonella enterica

C/C(=N\NC1=NCCN1)c1cnn(-c2ccc(C#CC3CCCC3)cc2)c1C was tested. Which MIC did it give?
The MIC was 32 µg/mL (≈ 85.4 µM).

system: Staphylococcus aureus; assay: Antibacterial activity against Methicillin-resistant Staphylococcus aureus NRS385-USA500 clinical isolates after 18 to 20 hrs in aerobic condition by CLSI protocol based broth microdilution assay; assay type: functional; details: not given

With C/C(=N\NC1=NCCN1)c1cnn(-c2ccc(C#CC3CCCC3)cc2)c1C as the compound, how does the MIC read?
The MIC was 4 µg/mL (≈ 10.7 µM).

system: Staphylococcus aureus; assay: Antibacterial activity against vancomycin-resistant Staphylococcus aureus isolate 10 after 18 to 20 hrs in aerobic condition by CLSI-based broth microdilution assay; assay type: functional; details: not given

How did the MIC turn out when C/C(=N\NC1=NCCN1)c1cnn(-c2ccc(C#CC3CCCC3)cc2)c1C was run?
Its MIC is 8 µg/mL (≈ 21.4 µM).

system: Salmonella enteritidis; assay: Ratio of MBC to MIC for Salmonella enteritidis ATCC 13076 clinical isolates; assay type: functional, Salmonella enterica subsp. enterica serovar Enteritidis; details: not given

Which Ratio does the source give for C/C(=N\NC1=NCCN1)c1cnn(-c2ccc(C#CC3CCCC3)cc2)c1C here?
The Ratio was “>=1”.

system: Enterobacter cloacae subsp. cloacae; assay: Ratio of MBC to MIC for Enterobacter cloacae subsp. cloacae ATCC BAA-1143 clinical isolates; assay type: functional; details: not given

For C/C(=N\NC1=NCCN1)c1cnn(-c2ccc(C#CC3CCCC3)cc2)c1C, which Ratio is on record?
Its Ratio is greater than 1.

system: Escherichia coli; assay: Antibacterial activity against Escherichia coli BW25113 clinical isolates after 18 to 20 hrs in aerobic condition by CLSI-based broth microdilution assay; assay type: functional; details: not given

With C/C(=N\NC1=NCCN1)c1cnn(-c2ccc(C#CC3CCCC3)cc2)c1C as the compound, how does the MIC read?
Its MIC is 64 µg/mL (≈ 171 µM).

system: Acinetobacter baumannii; assay: Ratio of MBC to MIC for Acinetobacter baumannii NR 17785 clinical isolates; assay type: functional; details: not given

With C/C(=N\NC1=NCCN1)c1cnn(-c2ccc(C#CC3CCCC3)cc2)c1C as the compound, how does the Ratio read?
The Ratio was “>=1”.

system: Streptococcus pneumoniae; assay: Ratio of MBC to MIC for cephalosporin-resistant Streptococcus pneumoniae ATCC 51916 clinical isolates; assay type: functional; details: not given

With C/C(=N\NC1=NCCN1)c1cnn(-c2ccc(C#CC3CCCC3)cc2)c1C as the compound, how does the Ratio read?
The Ratio was less than 3.

system: Escherichia coli; assay: Inhibition of 6His tagged Escherichia coli UPPP expressed in Escherichia coli C41(DE3) cells preincubated for 15 mins followed by FPP substrate addition and measured after 20 mins by malachite green reagent based assay; details: not given

With C/C(=N\NC1=NCCN1)c1cnn(-c2ccc(C#CC3CCCC3)cc2)c1C as the compound, how does the inhibition read?
The inhibition was “inactive”.

system: Escherichia coli; assay: Antibacterial activity against Escherichia coli ATCC 35150 clinical isolates after 18 to 20 hrs in aerobic condition by CLSI-based broth microdilution assay; assay type: functional; details: not given

C/C(=N\NC1=NCCN1)c1cnn(-c2ccc(C#CC3CCCC3)cc2)c1C was tested. Which MIC did it give?
The MIC was 16 µg/mL (≈ 42.7 µM).

system: Acinetobacter baumannii; assay: Antibacterial activity against Acinetobacter baumannii NR 17785 clinical isolates after 18 to 20 hrs in aerobic condition by CLSI-based broth microdilution assay; assay type: functional; details: not given

How did the MIC turn out when C/C(=N\NC1=NCCN1)c1cnn(-c2ccc(C#CC3CCCC3)cc2)c1C was run?
Its MIC is 8 µg/mL (≈ 21.4 µM).

system: Staphylococcus epidermidis; assay: Antibacterial activity against Staphylococcus epidermidis NRS101 after 18 to 20 hrs in aerobic condition by CLSI-based broth microdilution assay; assay type: functional; details: not given

C/C(=N\NC1=NCCN1)c1cnn(-c2ccc(C#CC3CCCC3)cc2)c1C was tested. Which MIC did it give?
Its MIC is 2 µg/mL (≈ 5.34 µM).

system: Escherichia coli; assay: Antibacterial activity against carbapenem-resistant Escherichia coli BAA-2469 clinical isolates after 18 to 20 hrs in aerobic condition by CLSI-based broth microdilution assay; assay type: functional; details: not given

With C/C(=N\NC1=NCCN1)c1cnn(-c2ccc(C#CC3CCCC3)cc2)c1C as the compound, how does the MIC read?
The MIC was 32 µg/mL (≈ 85.4 µM).

system: Escherichia coli; assay: Ratio of MBC to MIC for Escherichia coli ATCC 25922 clinical isolates; assay type: functional; details: not given

How did the Ratio turn out when C/C(=N\NC1=NCCN1)c1cnn(-c2ccc(C#CC3CCCC3)cc2)c1C was run?
Its Ratio is “>=1”.

system: Pseudomonas aeruginosa; assay: microbe, parasite or virus in culture; details: ATCC 9027
Description: Antibacterial activity against Pseudomonas aeruginosa ATCC 9027 clinical isolates after 18 to 20 hrs in aerobic condition by CLSI-based broth microdilution assay

With C/C(=N\NC1=NCCN1)c1cnn(-c2ccc(C#CC3CCCC3)cc2)c1C as the compound, how does the MIC read?
Its MIC is 32 µg/mL (≈ 85.4 µM).

system: Escherichia coli; assay: Ratio of MBC to MIC for Escherichia coli ATCC 35150 clinical isolates; assay type: functional; details: not given

Which Ratio does the source give for C/C(=N\NC1=NCCN1)c1cnn(-c2ccc(C#CC3CCCC3)cc2)c1C here?
The Ratio was “>=1”.

system: Acinetobacter baumannii; assay: Ratio of MBC to MIC for Acinetobacter baumannii ATCC 19606 clinical isolates; assay type: functional, ATCC 19606 = CIP 70.34 = JCM 6841; details: not given

Which Ratio does the source give for C/C(=N\NC1=NCCN1)c1cnn(-c2ccc(C#CC3CCCC3)cc2)c1C here?
Its Ratio is “>=1”.

system: Enterococcus faecalis; assay: Antibacterial activity against vancomycin-resistant Enterococcus faecalis ATCC 51299 clinical isolates after 18 to 20 hrs in aerobic condition by CLSI-based broth microdilution assay; assay type: functional; details: not given

C/C(=N\NC1=NCCN1)c1cnn(-c2ccc(C#CC3CCCC3)cc2)c1C was tested. Which MIC did it give?
The MIC was 8 µg/mL (≈ 21.4 µM).

system: Salmonella typhimurium; assay: Ratio of MBC to MIC for Salmonella typhimurium ATCC 700720 clinical isolates; assay type: functional, Salmonella enterica subsp. enterica serovar Typhimurium; details: not given

For C/C(=N\NC1=NCCN1)c1cnn(-c2ccc(C#CC3CCCC3)cc2)c1C, which Ratio is on record?
Its Ratio is “>=1”.
